Literature values, collected in US20030104065A1, “Method of preparing solid dispersions” (priority 2002, published 2003).

Settings: local anesthetic effect, versus lidocaine

In the case of `CCCN1CCCC[C@H]1C(=O)Nc1c(C)cccc1C` [ropivacaine], the “therapeutic potency relative to lidocaine” value is given as “about 50 times”.
